Test results taken from the NIST ThermoML archive (doi:10.1021/je060271a).

Conditions: 283.15 K, Liquid, Vibrating tube method

CCCC(=O)OCC(COC(=O)CCC)(COC(=O)CCC)COC(=O)CCC [pentaerythritol tetrabutyrate]
Conditions | mass density [kg/m3]
22400 kPa | 1071.8
22416 kPa | 1071.7
22432 kPa | 1071.7
22448 kPa | 1071.7
22467 kPa | 1071.7
22485 kPa | 1071.7
22500 kPa | 1071.8
22516 kPa | 1071.7
22535 kPa | 1071.9
22551 kPa | 1072
22567 kPa | 1071.8
22586 kPa | 1071.9
22602 kPa | 1071.9
22618 kPa | 1071.8
22634 kPa | 1071.9
22654 kPa | 1071.9
22670 kPa | 1072
22686 kPa | 1071.9
22706 kPa | 1071.9
22722 kPa | 1071.9
22738 kPa | 1071.9
22754 kPa | 1071.9
22774 kPa | 1071.9
22806 kPa | 1072
22894 kPa | 1072.1
22914 kPa | 1072
22930 kPa | 1072.1
22946 kPa | 1072
22964 kPa | 1072.1
22984 kPa | 1072
23000 kPa | 1072.1
23143 kPa | 1072.2
23160 kPa | 1072.1
23177 kPa | 1072.1
23197 kPa | 1072.2
23214 kPa | 1072.3
23231 kPa | 1072.3
23249 kPa | 1072.2
23286 kPa | 1072.2
23303 kPa | 1072.3
23324 kPa | 1072.2
23341 kPa | 1072.3
23358 kPa | 1072.2
23379 kPa | 1072.2
23396 kPa | 1072.3
23413 kPa | 1072.3
23731 kPa | 1072.5
23749 kPa | 1072.5
23882 kPa | 1072.6
23900 kPa | 1072.5
23921 kPa | 1072.6
23939 kPa | 1072.5
23958 kPa | 1072.7
23980 kPa | 1072.6
23998 kPa | 1072.5
24016 kPa | 1072.7
24272 kPa | 1072.8
24291 kPa | 1072.8
24313 kPa | 1072.8
24675 kPa | 1073
24694 kPa | 1073
24718 kPa | 1073
24737 kPa | 1073
24756 kPa | 1073
24780 kPa | 1073
24799 kPa | 1073.1
24819 kPa | 1073
24842 kPa | 1073.1
24862 kPa | 1073.1
24882 kPa | 1073.1
24902 kPa | 1073.1
24926 kPa | 1073.1
24945 kPa | 1073.1
24969 kPa | 1073.2
25008 kPa | 1073.3
25032 kPa | 1073.1
25052 kPa | 1073.1
25072 kPa | 1073.2
25092 kPa | 1073.2
25112 kPa | 1073.3
25136 kPa | 1073.2
25157 kPa | 1073.1
25182 kPa | 1073.3
25201 kPa | 1073.3
25225 kPa | 1073.2
25246 kPa | 1073.2
25266 kPa | 1073.3
25287 kPa | 1073.3
25311 kPa | 1073.3
25332 kPa | 1073.3
25353 kPa | 1073.3
25378 kPa | 1073.3
25399 kPa | 1073.4
25420 kPa | 1073.3
25441 kPa | 1073.3
25465 kPa | 1073.5
25486 kPa | 1073.3
25598 kPa | 1073.4
25620 kPa | 1073.5
25641 kPa | 1073.6
25666 kPa | 1073.5
25688 kPa | 1073.6
25710 kPa | 1073.5
25731 kPa | 1073.6
25757 kPa | 1073.5
25778 kPa | 1073.5
25799 kPa | 1073.5
25820 kPa | 1073.5
25846 kPa | 1073.6
25867 kPa | 1073.5
25889 kPa | 1073.7
25915 kPa | 1073.5
25936 kPa | 1073.6
25958 kPa | 1073.7
25985 kPa | 1073.7
26009 kPa | 1073.6
26031 kPa | 1073.7
26052 kPa | 1073.7
26074 kPa | 1073.8
26101 kPa | 1073.8
26122 kPa | 1073.6
26148 kPa | 1073.8
26170 kPa | 1073.8
26193 kPa | 1073.7
26219 kPa | 1073.8
26241 kPa | 1073.8
26264 kPa | 1073.8
26290 kPa | 1073.8
26313 kPa | 1073.8
26334 kPa | 1073.8
26361 kPa | 1073.8
26384 kPa | 1073.9
26406 kPa | 1073.8
26429 kPa | 1073.8
26456 kPa | 1074
26478 kPa | 1073.9
26501 kPa | 1073.8
26722 kPa | 1074
26740 kPa | 1074
26772 kPa | 1074.1
26796 kPa | 1074
26824 kPa | 1074.1
26848 kPa | 1074.1
26871 kPa | 1074.2
26899 kPa | 1074.2
26923 kPa | 1074
